From patent US9878992B2, “GDF-8 inhibitors” (Rigel Pharmaceuticals, Inc., priority 2012, dated 2018) come the findings set out here.

Chain of MAP4K4 (O95819 whole entry, species assumed): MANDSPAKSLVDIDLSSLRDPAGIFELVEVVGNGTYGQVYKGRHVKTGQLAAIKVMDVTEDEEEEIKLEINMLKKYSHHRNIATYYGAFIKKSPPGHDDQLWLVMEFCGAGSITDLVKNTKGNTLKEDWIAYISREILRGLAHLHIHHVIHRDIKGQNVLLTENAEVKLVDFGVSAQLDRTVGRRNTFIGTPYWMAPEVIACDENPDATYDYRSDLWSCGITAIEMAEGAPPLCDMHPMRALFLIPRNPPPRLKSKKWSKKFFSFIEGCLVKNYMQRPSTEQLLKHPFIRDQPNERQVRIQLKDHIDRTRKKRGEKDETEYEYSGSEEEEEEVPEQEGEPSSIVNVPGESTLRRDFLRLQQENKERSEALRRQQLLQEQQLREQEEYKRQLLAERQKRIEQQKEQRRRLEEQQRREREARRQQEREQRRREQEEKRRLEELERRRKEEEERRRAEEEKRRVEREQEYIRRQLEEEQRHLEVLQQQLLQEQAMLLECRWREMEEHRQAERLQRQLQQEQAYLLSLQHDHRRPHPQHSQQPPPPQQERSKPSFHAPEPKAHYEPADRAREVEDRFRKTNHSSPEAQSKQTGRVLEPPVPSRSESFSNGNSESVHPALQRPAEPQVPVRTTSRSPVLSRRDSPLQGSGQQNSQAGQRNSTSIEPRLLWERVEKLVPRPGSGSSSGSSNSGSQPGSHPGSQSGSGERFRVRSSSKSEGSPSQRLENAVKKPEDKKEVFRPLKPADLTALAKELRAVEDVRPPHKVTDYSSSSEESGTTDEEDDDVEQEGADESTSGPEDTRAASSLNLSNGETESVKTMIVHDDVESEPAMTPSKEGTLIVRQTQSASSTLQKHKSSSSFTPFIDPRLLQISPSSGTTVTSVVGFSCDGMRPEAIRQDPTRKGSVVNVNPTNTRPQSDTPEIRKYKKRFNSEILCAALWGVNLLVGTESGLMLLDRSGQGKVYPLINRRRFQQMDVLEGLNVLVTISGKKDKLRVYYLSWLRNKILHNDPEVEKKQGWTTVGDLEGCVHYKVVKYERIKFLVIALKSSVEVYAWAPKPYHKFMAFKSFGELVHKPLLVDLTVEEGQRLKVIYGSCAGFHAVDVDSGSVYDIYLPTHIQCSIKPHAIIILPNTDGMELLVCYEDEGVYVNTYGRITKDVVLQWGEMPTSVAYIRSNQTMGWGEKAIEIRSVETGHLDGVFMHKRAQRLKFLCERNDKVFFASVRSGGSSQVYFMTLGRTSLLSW

The first experiment concerns the target MAP4K4 (Homo sapiens, UniProt O95819). The experiment is described as follows: MAP4K4 inhibition. Type of experiment: biochemical.
Conditions: not given
The text has this: Such compounds are particularly useful in muscle disorders, such as cachexia and sarcopenia as MAP4K4 acts as a suppressor of skeletal muscle differentiation. See, Wang M, Amano S U, Flach R J, Chawla A, Aouadi M, Czech P. Molecular and cellular biology. 2013 February; 33(4): 678-87.
In the case of `Nc1ncnc2ccc(-c3cccnc3-c3cc(O)cc(F)c3)cc12` [Compound 494, 3-(3-(4-Aminoquinazolin-6-yl)pyridin-2-yl)-5-fluorophenol], the IC50 was under 500 nM.
As for `Nc1ncnc2ccc(-c3cccnc3-c3cccc(O)c3)cc12` [Compound 456, 3-(3-(4-Aminoquinazolin-6-yl)pyridin-2-yl)phenol], the IC50 was under 500 nM.
Consider `Nc1ncnc2ccc(-c3cccnc3-c3cc(Cl)ccc3F)cc12` [Compound 818, 6-(2-(5-Chloro-2-fluorophenyl)pyridin-3-yl)quinazolin-4-amine], for which the IC50 is under 500 nM.
In the case of `O=c1nc[nH]c2ccc(-c3cccnc3-c3cccc(Cl)c3)cc12` [Compound 389, 6-(2-(3-Chlorophenyl)pyridin-3-yl)quinazolin-4(1H)-one], the IC50 is under 500 nM.
`Nc1ncnc2ccc(-c3cccnc3-c3cc(F)cc(Cl)c3)cc12` [Compound 460, 6-(2-(3-Chloro-5-fluorophenyl)pyridin-3-yl)quinazolin-4-amine]: the IC50 is under 500 nM.
In the case of `Cc1cc(-c2ncccc2-c2ccc3[nH]ncc3c2)ccc1F` [Compound 63, 5-(2-(4-Fluoro-3-methylphenyl)pyridin-3-yl)-1H-indazole], the IC50 was under 500 nM.
`Nc1ncnc2ccc(-c3cccnc3-c3ccc(F)c(Cl)c3)cc12` [Compound 448, 6-(2-(3-Chloro-4-fluorophenyl)pyridin-3-yl)quinazolin-4-amine] returned an IC50 of under 500 nM.

The next experiment relates to GDF8 signaling. The experiment is described as follows: AlphaScreen SureFire SMAD3 (p-Ser423/425) assay, GDF8-stimulated cells. The settings on record: Mus musculus, MPC-11, inhibition of GDF8 signaling; pSMAD readout; MPC11; read-out: GDF pSMAD (MPC11). Type of experiment: cell-based. An excerpt: [The procedure below names another cell line; the source lists this cell line under the same test.] The p-SMAD-3 (Ser423/425) SureFire® assay has been designed to measure the phosphorylation of endogenous cellular p-SMAD-3 (Ser423/425) in cell lysates and is a system for the screening of both modulators of receptor activation (e.g. agonists and antagonists) as well as agents acting intracellularly, such as small molecule inhibitors of upstream events. The assay will measure p-SMAD-3 (Ser423/425) activation by either cloned or endogenous receptors, and can be applied to primary cells.
P-SMAD-3 (Ser423/425) SureFire® Assay Protocols
Step A: Preparation of Buffers
1× Lysis buffer: 1 ml of 5× Lysis buffer was diluted with 4 ml of sterile water. After dilution, excess 1× Lysis buffer can be frozen and thawed up to 5 times without loss in activity.
Activation buffer: The buffer was warmed slowly to 37° C. and gently mixed to re-suspend. Activation buffer can be stored at room temperature with no loss in activity.
Reaction buffer: The buffer was kept at 4° C. while in use.
AlphaScreen® Protein A IgG Kit: The kit was stored at 4° C. in the dark.
Reaction buffer+Activation buffer+AlphaScreen® Acceptor beads: Reaction buffer (40 parts), Activation Buffer (10 parts) and Acceptor beads (1 part) were mixed and the mixture was stored at room temperature and used the same day. Mixture was added to 384-well plates; excess mixture was discarded.
Dilution buffer+AlphaScreen® Donor beads: Dilution buffer (20 parts) and Donor beads (1 part) were mixed and the mixture was stored at room temperature and used the same day. Excess mixture was discarded.
Assay control samples: After reconstitution in 250 μl of water, lysates were at −20° C. in single use aliquots.
Step B: Preparation of Samples and Cells
96-well Assay Protocol for 293FT and RMS13 adherent cells can be carried out manually or in high throughput with liquid handling robots.
The cells (80 μL, of cells for 96 well plates) were plated in collagen coated tissue culture plates in RPMI or FreeStyle medium (Invitrogen) and incubated overnight. For manual analysis, 6 plates for GDF8, 6 plates for TGFβ, and optionally 6 plates for Alk5ca (ALK5 constitutively active) were used.
The compound dilution plates were prepared as follows: 12 μL of DMSO was transferred into first column of 96-well plate, and 16 μL of DMSO was transferred into columns 2-12 of the 96-well plate. 12 μL of compound solution was transferred into first column of the DMSO-containing 96-well plate. Three-fold dilution was performed up to column 10 of the DMSO-containing 96-well plate.
Step C: Treatment and Analysis
The plate containing cells were treated with compounds for about 10 minutes, and then ligand was added. GDF8 or TGFb was added to plates to stimulate. 293FL cells were stimulated for 90 minutes at 37° C.; and RMS13 cells were stimulated for 60 minutes at 37° C. The medium was then removed from the cells, and 1× Lysis Buffer (about 25 μL) was added and the plate was gently agitated on plate shaker for 5-10 minutes.
The lysate (5 μL) was then placed into 384-well shallow plates avoiding the generation of bubbles. To this, the Reaction Buffer+Activation Buffer+AlphaScreen® Acceptor beads mixture (5 μL) was added. The plate was sealed with adhesive cover and shielded from light (e.g., with metal foil), and agitated gently on plate shaker for 2 hours at room temperature.
Dilution buffer+AlphaScreen® Donor beads (2 μL) was then added, and the plate was intubated on the plate shaker for an additional 1½ hours. After completion, the plate was read on Synergy-4 or Enspire plate reader, using AlphaScreen® pSMAD3® settings.
On to `[2H]C([2H])([2H])c1cccc(-c2ncccc2-c2ccc3ncc(C(C)=O)n3c2)c1` [Compound 606, 1-(6-(2-(3-(Methyl-d3)phenyl)pyridin-3-yl)imidazo[1,2-a]pyridin-3-yl)ethan-1-one], for which the IC50 stood at 1440 nM.
On to `Cc1cc(-c2ncc(CO)cc2-c2ccc3nccnc3c2)ccc1F` [Compound 222, (6-(4-Fluoro-3-methylphenyl)-5-(quinoxalin-6-yl)pyridin-3-yl)methanol], for which the IC50 came out at 5620 nM.
Turning to `Cc1cc(-c2ncccc2-c2ccc3ncnc(N4CCOCC4)c3c2)ccc1F` [Compound 385, 4-(6-(2-(4-Fluoro-3-methylphenyl)pyridin-3-yl)quinazolin-4-yl)morpholine], the IC50 is 2560 nM.
Same read-out and setting: the value for `Fc1ccc(Cl)cc1-c1ncccc1-c1ccc2nccn2n1` [Compound 937, 6-(2-(5-Chloro-2-fluorophenyl)pyridin-3-yl)imidazo[1,2-b]pyridazine] was 207 nM.
Turning to `COc1ncnc2ccc(-c3cccnc3-c3cccc(O)c3)cc12` [Compound 378, 3-(3-(4-Methoxyquinazolin-6-yl)pyridin-2-yl)phenol], the IC50 came to 558 nM.
Consider `Cc1cc(-c2ncccc2-c2ccn3ncc(C(=O)N[C@@H]4C[C@@H]5CCCN5C(C)(C)C4)c3c2)ccc1F` [Compound 745, N-((7R,8aS)-5,5-Dimethyloctahydroindolizin-7-yl)-5-(2-(4-difluoro-3-methylphenyl)pyridin-3-yl)pyrazolo[1,5-a]pyridine-3-carboxamide], for which the IC50 was determined as 366 nM.
In the case of `COc1cc(-c2cnc3ccc(-c4cccnc4-c4ccc(F)c(C)c4)cn23)cc(OC)c1OC` [Compound 577, 6-(2-(4-Fluoro-3-methylphenyl)pyridin-3-yl)-3-(3,4,5-trimethoxyphenyl)imidazo[1,2-a]pyridine], the IC50 was 2260 nM.
The same measure, in the same setting: the value for `Cc1cc(-c2ncccc2-c2ccc3ncnc(OCCN4CCOCC4)c3c2)ccc1F` [Compound 425, 4-(2-((6-(2-(4-Fluoro-3-methylphenyl)pyridin-3-yl)quinazolin-4-yl)oxy)ethyl)morpholine] was 537 nM; that for `Cc1cccc(-c2ncccc2-c2ccc3ncn(CCCON)c3c2)c1` [Compound 38] was 3230 nM; that for `Cc1cc(-c2ncccc2-c2ccc3ncccc3c2)ccc1F` [Compound 207, 6-(2-(4-Fluoro-3-methylphenyl)pyridin-3-yl)quinoline] was 2040 nM.
The same measure, in the same setting: the figure for `Cc1cc(-c2ncc(F)cc2-c2ccc3[nH]ncc3c2)ccc1F` [Compound 10, 5-(5-Fluoro-2-(4-fluoro-3-methylphenyl)pyridin-3-yl)-1H-indazole] is 535 nM; for `Cc1cc(-c2ncccc2-c2ccc3ncc(C(=O)N[C@@H]4C[C@@H]5CCCN5C(C)(C)C4)n3c2)ccc1F` [Compound 744, N-((7R,8aS)-5,5-Dimethyloctahydroindolizin-7-yl)-6-(2-(4-fluoro-3-methylphenyl)pyridin-3-yl)imidazo[1,2-a]pyridine-3-carboxamide] it is 968 nM; for `Cc1cc(-c2ncccc2-c2ccc3nn(COP(=O)(O)O)cc3c2)ccc1F` [Compound 172, [5-(2-(4-Fluoro-3methylphenyl)pyridin-3-yl)-2H-indazol-2-yl]methyl dihydrogen phosphate] it is 187 nM.
For the compound `Cc1cccc(-c2ncccc2-c2ccc3ncccc3c2)c1` [Compound 208, 6-(2-m-Tolylpyridin-3-yl)quinoline], the IC50 was found to be 1150 nM.
